Test results reported in patent publication US6107316A, “Method for treating protozoal infections” (priority 1998, dated 2000).
Converted amounts (≈) assume the structure as drawn. Like-named read-outs stand apart in the source and are kept apart here. One block for each compound: values may come before it.

Columns and labels:
Giardia lamblia = experiment: in vitro growth inhibitory activity against Giardia lamblia; type: cell-based; details: Giardia duodenalis; concentration required to inhibit growth by 50%
Experimental: 35, pp. 2198-2202 (1991). EC50 values for test compounds, expressed in parts per million (ppm), were calculated from dose response curves and are presented in Table 4. As used herein, the terminology "EC50" means the concentration of test compound required to inhibit growth by 50% are compared to a control lacking the test compound. Metronidazole was included as a standard in the tests for comparative purposes.

Leishmania major = experiment: in vitro growth inhibitory activity against L. major promastigotes; type: cell-based
From the text: 35, pp. 2198-2202 (1991).

Tetrahymena pyriformis = experiment: in vitro growth inhibitory activity against the ciliate Tetrahymena pyriformis; type: cell-based, Tetrahymena pyriformis (ATCC strain 30005); details: read-out: EC50 Tetrahymena pyriformis
Experimental: Compounds were evaluated for in vitro growth inhibitory activity against the ciliate Tetrahymena pyriformis, which was used as an indicator organism for the Apicomplexia since by several criteria the ciliates and Apicomplexa are closely related (Edlind T. D. et al., Mol. Phylogenet. Evol. vol. 5, pp. 359-367, 1996). T. pyriformis (ATCC strain 30005) was grown in 1 ml ATCC medium 357 at 25° C. in 4 ml polyallomer culture tubes without shaking. Compounds were dissolved in dimethylsufoxide (DMSO) and added to the cultures (containing 3,000 cells/ml) such that the final DMSO concentration was 0.1-0.3%. […] Parasitol. vol. 84, pp. 355-370, 1996) and Cryptosporidium parvum (Arrowood et al., FEMS Microbial. Lett., vol. 136, pp. 245-249, 1996) were tested for comparison.

Toxoplasma gondii [1] = experiment: growth inhibition of T. gondii in L929 host cells ([3H]-uracil incorporation); type: cell-based; details: Toxoplasma gondii
Experimental: (§1) Compounds were tested for it vitro growth inhibitory activity against Toxoplasma gondii replication in L929 (L929-ATCC CCL 1, mouse connective tissue) or HFF (human foreskin fibroblast) host cells using the [^3 H]-uracil incorporation technique as follows. Host cells were grown in 96-well flat-bottom microtiter plates at 37° C in a 5% carbon dioxide environment in modified Eagle's medium containing penicillin, streptomycin and 10% fetal equine serum. Wells containing a homogeneous confluent monolayer of host cells were infected with T. gondii tachyzoites at a ratio of 3 parasites per cell (approximately 6×10^4 tachyzoites per well containing 100 μl of medium). […] Two hours post infection, the cultures were washed to remove free parasites and the various dilutions of test compound were added. Cells were subsequently collected at 24, 48 and 72 hours. Four hours prior to each harvesting 50 Al of [^3 H]-uracil (1 μCi) was added. Cells were collected using a cell harvester and incorporated radioactivity was measured using a scintillation counter. […]

Toxoplasma gondii [2] = experiment: growth inhibition of T. gondii in HFF host cells ([3H]-uracil incorporation); type: cell-based; details: Toxoplasma gondii
Experimental: as §1

[3] = cytotoxicity towards L929 host cells (Cell Titer 96); details: mouse, % Inhibition of host cell growth (values in parenthesis)
Experimental: (§2) Cytotoxicity of the test compounds towards host cells was determined using the Cell Titer 96™ it (Promega Corporation, Madison, Wis.) as follows. Cells were seeded at a concentration of 5×10^3 cells per well containing 100 μl of medium in 96-well flat-bottom microtiter plates and incubated at 37° C. in a 5% carbon dioxide environment for 4 hours. Dilutions of the test compounds prepared as described above were then added, and incubation continued for 24, 48 or 72 hours. Four hours before each of these time points the growth medium containing test compound was replaced with 100 μl of fresh medium followed by addition of 16 μl of the kit dye solution. After incubation at 37° C. for another 4 hours, 100 μl of the kit solubilization/stop solution was added to each well, the contents of the wells were mixed and the plates kept 1 hour at room temperature. The plates were then read spectrophotometrically in a plate reader at a wavelength of 570 nm. […] Atovaquone was included in the test as a standard.

[4] = cytotoxicity towards HFF host cells (Cell Titer 96); details: human, % Inhibition of host cell growth (values in parenthesis)
Experimental: as §2

Cryptosporidium parvum = experiment: growth inhibitory activity against C. parvum in host MDBKF5D2 cells (immunofluorescence); type: cell-based; details: Cryptosporidium parvum, 48 h
Experimental: (§3) Compounds were tested for in vitro growth inhibitory activity against C. parvum grown in host MDBKF5D2 cells and for toxicity towards the host cells as follows. […] To test for toxicity towards the host cells, the media containing test compound (200 μl) were introduced into two wells of a 96 well microtiter plate containing confluent MDBKF5D2 cell monolayers and two wells without monolayers, and incubated at 37° C. in an 8% carbon dioxide environment. After 48 hours, the tetrazolium salt MTS (Owen's solution) and phenazine methosulfate were added to each well at concentrations of 333 μg/ml and 25 μM, respectively. The plate was returned to the incubator in the dark to develop for 2 hours, then 100 μl of each supernatant was transferred to a new microtiter plate and read spectrophotometrically in a plate reader at a wavelength of 490 nm. Percent toxicity was calculated by subtracting the mean optical density (OD) of the drug supernatants from the OD of medium control supernatants (no drug), dividing by the OD of the medium control, and multiplying by 100. To test for growth inhibitory activity against C. parvum, 3×10^4 oocysts per well were incubated in mentioned concentrations of each drug at 37° C. (8% CO2) on confluent MDBKF5D2 cell monolayers in 96 well microtiter plates. After 48 hours, the level of infection in each well was determined by means of an immunofluorescence assay. Percent inhibition of growth was calculated by subtracting the mean parasite count in the wells containing test compound from the mean parasite count in the medium control wells (no test compound), dividing by the mean parasite count in the medium control wells, and multiplying by 100. Paromomycin was included in the test as a standard.

[5] = toxicity towards MDBKF5D2 host cells (MTS); details: bovine, mdbkf5d2 cells, Cytotoxicity (percent toxicity)
Experimental: as §3

EC50 (Giardia lamblia): 0.03 µg/mL (≈ 0.0881 µM) | EC50 (Leishmania major): 0.1 µg/mL (≈ 0.294 µM)
Structure (SMILES): CCC(C)(NC(=O)c1cc(Cl)c(F)c(Cl)c1)C(=O)CCl (stereo not shown) [Compound 9]
EC50 (Tetrahymena pyriformis; 24 hours, 25° C.): 0.004 µg/mL (≈ 0.0117 µM) | inhibition at 0.5 µg/mL (Toxoplasma gondii [1]; L929, 24 h, L929 host cells, 0.5 μg/ml, 24 hours, read-out: % Inhibition): 29% | inhibition at 5 µg/mL (Toxoplasma gondii [1]; L929, 24 h, L929 host cells, 5.0 μg/ml, 24 hours, read-out: % Inhibition): 28.2% | inhibition at 0.5 µg/mL (Toxoplasma gondii [1]; L929, 48 h, L929 host cells, 0.5 μg/ml, 48 hours, read-out: % Inhibition): 86.3% | inhibition at 5 µg/mL (Toxoplasma gondii [1]; L929, 48 h, L929 host cells, 5.0 μg/ml, 48 hours, read-out: % Inhibition): 77.3% | inhibition at 0.5 µg/mL (Toxoplasma gondii [1]; L929, 72 h, L929 host cells, 0.5 μg/ml, 72 hours, read-out: % Inhibition): 90.9% | inhibition at 5 µg/mL (Toxoplasma gondii [1]; L929, 72 h, L929 host cells, 5.0 μg/ml, 72 hours, read-out: % Inhibition): 95.6% | inhibition at 0.5 µg/mL (Toxoplasma gondii [2]; 24 h, HFF host cells, 0.5 μg/ml, 24 hours, read-out: % Inhibition): 58.7% | inhibition at 5 µg/mL (Toxoplasma gondii [2]; 24 h, HFF host cells, 5.0 μg/ml, 24 hours, read-out: % Inhibition): 74.3% | inhibition at 0.5 µg/mL (Toxoplasma gondii [2]; 48 h, HFF host cells, 0.5 μg/ml, 48 hours, read-out: % Inhibition): 77.6% | inhibition at 5 µg/mL (Toxoplasma gondii [2]; 48 h, HFF host cells, 5.0 μg/ml, 48 hours, read-out: % Inhibition): 97% | inhibition at 0.5 µg/mL (Toxoplasma gondii [2]; 72 h, HFF host cells, 0.5 μg/ml, 72 hours, read-out: % Inhibition): 0% | inhibition at 5 µg/mL (Toxoplasma gondii [2]; 72 h, HFF host cells, 5.0 μg/ml, 72 hours, read-out: % Inhibition): 96.3% | inhibition at 24 h ([3]; L929, 0.5 μg/ml): 6.3% | inhibition at 48 h ([3]; L929, 0.5 μg/ml): 0% | inhibition at 72 h ([3]; L929, 0.5 μg/ml): 8.5% | inhibition at 24 h ([3]; L929, 5.0 μg/ml): 20.2% | inhibition at 48 h ([3]; L929, 5.0 μg/ml): 65.2% | inhibition at 72 h ([3]; L929, 5.0 μg/ml): 90.4% | inhibition at 24 h ([4]; 0.5 μg/ml): 1.1% | inhibition at 48 h ([4]; 0.5 μg/ml): 1.1% | inhibition at 72 h ([4]; 0.5 μg/ml): 0% | inhibition at 24 h ([4]; 5.0 μg/ml): 2.4% | inhibition at 48 h ([4]; 5.0 μg/ml): 21.3% | inhibition at 72 h ([4]; 5.0 μg/ml): 6.3% | inhibition at 0.1 µM (Cryptosporidium parvum; 0.1 μM): 1.8% | inhibition at 1 µM (Cryptosporidium parvum; 1.0 μM): 27.9% | inhibition at 10 µM (Cryptosporidium parvum; 10 μM): 32.8% | cytotoxicity at 48 h, 0.1 µM ([5]; 0.1 μM): 6.7% | cytotoxicity at 48 h, 1 µM ([5]; 1.0 μM): 0% | cytotoxicity at 48 h, 10 µM ([5]; 10 μM): 0% | cytotoxicity at 48 h, 100 µM ([5]; 100 μM): 81.4%

Structure (SMILES): CCC(C)(NC(=O)c1cc(Cl)c(C)c(Cl)c1)C(=O)CCl (stereo not shown) [Compound 10]
EC50 (Giardia lamblia): 0.06 µg/mL (≈ 0.178 µM) | EC50 (Leishmania major): 0.2 µg/mL (≈ 0.594 µM) | EC50 (Tetrahymena pyriformis; 24 h): 0.004 µg/mL (≈ 0.0119 µM) | inhibition at 0.5 µg/mL (Toxoplasma gondii [1]; L929, 24 h): 0% | inhibition at 5 µg/mL (Toxoplasma gondii [1]; L929, 24 h): 20.5% | inhibition at 25 µg/mL (Toxoplasma gondii [1]; L929, 24 h): 19.6% | inhibition at 0.5 µg/mL (Toxoplasma gondii [1]; L929, 48 h): 0% | inhibition at 5 µg/mL (Toxoplasma gondii [1]; L929, 48 h): 80.5% | inhibition at 25 µg/mL (Toxoplasma gondii [1]; L929, 48 h): 86.5% | inhibition at 0.5 µg/mL (Toxoplasma gondii [1]; L929, 72 h): 2.3% | inhibition at 5 µg/mL (Toxoplasma gondii [1]; L929, 72 h): 90.4% | inhibition at 25 µg/mL (Toxoplasma gondii [1]; L929, 72 h): 98% | inhibition at 0.5 µg/mL (Toxoplasma gondii [2]; 24 h): 2.3% | inhibition at 5 µg/mL (Toxoplasma gondii [2]; 24 h): 8.8% | inhibition at 25 µg/mL (Toxoplasma gondii [2]; 24 h): 63.4% | inhibition at 0.5 µg/mL (Toxoplasma gondii [2]; 48 h): 2.1% | inhibition at 5 µg/mL (Toxoplasma gondii [2]; 48 h): 1.4% | inhibition at 25 µg/mL (Toxoplasma gondii [2]; 48 h): 95.7% | inhibition at 0.5 µg/mL (Toxoplasma gondii [2]; 72 h): 6.3% | inhibition at 5 µg/mL (Toxoplasma gondii [2]; 72 h): 0% | inhibition at 25 µg/mL (Toxoplasma gondii [2]; 72 h): 97.3% | inhibition at 24 h ([3]; L929, 0.5 μg/ml): 3.7% | inhibition at 48 h ([3]; L929, 0.5 μg/ml): 0% | inhibition at 72 h ([3]; L929, 0.5 μg/ml): 2.2% | inhibition at 24 h ([3]; L929, 5.0 μg/ml): 2.8% | inhibition at 48 h ([3]; L929, 5.0 μg/ml): 0% | inhibition at 72 h ([3]; L929, 5.0 μg/ml): 3.5% | inhibition at 24 h ([3]; L929, 25.0 μg/ml): 2.2% | inhibition at 48 h ([3]; L929, 25.0 μg/ml): 4.5% | inhibition at 72 h ([3]; L929, 25.0 μg/ml): 7.6% | inhibition at 24 h ([4]; 0.5 μg/ml): 0% | inhibition at 48 h ([4]; 0.5 μg/ml): 0% | inhibition at 72 h ([4]; 0.5 μg/ml): 3% | inhibition at 24 h ([4]; 5.0 μg/ml): 1.4% | inhibition at 48 h ([4]; 5.0 μg/ml): 7.6% | inhibition at 72 h ([4]; 5.0 μg/ml): 3.5% | inhibition at 24 h ([4]; 25.0 μg/ml): 6.7% | inhibition at 48 h ([4]; 25.0 μg/ml): 9.3% | inhibition at 72 h ([4]; 25.0 μg/ml): 4.8%
